pIC50: −log10 of the molar value.
Test system: PC-3
Assay: Growth inhibition of human PC-3 cells incubated for 6 to 7 days by MTS assay
Type: functional
Details: time 6-7 day

Row | SMILES | GI50
1 | CCN(c1cc(-c2ccc([C@@H]3C[C@H]3NCC(=O)N3CCNCC3)cc2)cc(C(=O)NCc2c(C)cc(C)[nH]c2=O)c1C)C1CCOCC1 (racemic) | > 30 µM
2 | CCN(c1cc(-c2cccc([C@H]3C[C@@H]3NC(=O)OC(C)(C)C)c2)cc(C(=O)NCc2c(C)cc(C)[nH]c2=O)c1C)C1CCOCC1 (racemic) | 19.3 µM
3 | CCN(c1cc(-c2ccc([C@@H]3C[C@H]3N(Cc3ccccc3F)C(=O)OC(C)(C)C)cc2)cc(C(=O)NCc2c(C)cc(C)[nH]c2=O)c1C)C1CCOCC1 (racemic) | 5.13 µM
4 | CCN(c1cc(-c2cccc([C@@H]3C[C@H]3N)c2)cc(C(=O)NCc2c(C)cc(C)[nH]c2=O)c1C)C1CCOCC1 (racemic) | 13.5 µM
5 | CCN(c1cc(-c2ccc([C@@H]3C[C@H]3NC3CCOCC3)cc2)cc(C(=O)NCc2c(C)cc(C)[nH]c2=O)c1C)C1CCOCC1 (racemic) | 12.7 µM
6 | CCN(c1cc(-c2cccc([C@@H]3C[C@H]3NC3CCOCC3)c2)cc(C(=O)NCc2c(C)cc(C)[nH]c2=O)c1C)C1CCOCC1 (racemic) | > 30 µM
7 | CCN(c1cc(-c2ccc([C@@H]3C[C@H]3NCC(=O)N3CCOCC3)cc2)cc(C(=O)NCc2c(C)cc(C)[nH]c2=O)c1C)C1CCOCC1 (racemic) | > 30 µM
8 | CCN(c1cc(-c2ccc([C@@H]3C[C@H]3NCc3ccccc3OC)cc2)cc(C(=O)NCc2c(C)cc(C)[nH]c2=O)c1C)C1CCOCC1 (racemic) | 6.41 µM
9 | CCN(c1cc(-c2cccc([C@H]3C[C@@H]3N(C(=O)OC(C)(C)C)C3CCOCC3)c2)cc(C(=O)NCc2c(C)cc(C)[nH]c2=O)c1C)C1CCOCC1 (racemic) | 3.87 µM
10 | N[C@@H]1C[C@H]1c1ccccc1.N[C@H]1C[C@@H]1c1ccccc1 (racemic) [TRANYLCYPROMINE] | > 30 µM

The remaining lines, values ahead:

Row | GI50 | SMILES
11 | 18.1 µM | CCN(c1cc(-c2ccc([C@@H]3C[C@H]3N(C(=O)OC(C)(C)C)C3CCCCC3)cc2)cc(C(=O)NCc2c(C)cc(C)[nH]c2=O)c1C)C1CCOCC1 (racemic)
12 | 3.27 µM | CCN(c1cc(-c2ccc([C@@H]3C[C@H]3N(C(=O)OC(C)(C)C)C3CCOCC3)cc2)cc(C(=O)NCc2c(C)cc(C)[nH]c2=O)c1C)C1CCOCC1 (racemic)
13 | 3.68 µM | CCN(c1cc(-c2cccc([C@H]3C[C@@H]3N(CC3CCOCC3)C(=O)OC(C)(C)C)c2)cc(C(=O)NCc2c(C)cc(C)[nH]c2=O)c1C)C1CCOCC1 (racemic)
14 | > 30 µM | CCN(c1cc(-c2ccc([C@@H]3C[C@H]3N(Cc3ccccc3)C(=O)OC(C)(C)C)cc2)cc(C(=O)NCc2c(C)cc(C)[nH]c2=O)c1C)C1CCOCC1 (racemic)
15 | > 30 µM | CCN(c1cc(-c2ccc([C@@H]3C[C@H]3N(CC3CC3)C(=O)OC(C)(C)C)cc2)cc(C(=O)NCc2c(C)cc(C)[nH]c2=O)c1C)C1CCOCC1 (racemic)

Test system: LNCaP
Assay: Growth inhibition of human LNCaP cells incubated for 6 to 7 days by MTS assay
Type: functional
Details: time 6-7 day

Row | SMILES | GI50
16 | CCN(c1cc(-c2ccc([C@@H]3C[C@H]3NCC(=O)N3CCNCC3)cc2)cc(C(=O)NCc2c(C)cc(C)[nH]c2=O)c1C)C1CCOCC1 (racemic) | 4.09 µM
17 | CCN(c1cc(-c2cccc([C@H]3C[C@@H]3NC(=O)OC(C)(C)C)c2)cc(C(=O)NCc2c(C)cc(C)[nH]c2=O)c1C)C1CCOCC1 (racemic) | 7.22 µM
18 | CCN(c1cc(-c2ccc([C@@H]3C[C@H]3N(Cc3ccccc3F)C(=O)OC(C)(C)C)cc2)cc(C(=O)NCc2c(C)cc(C)[nH]c2=O)c1C)C1CCOCC1 (racemic) | 5.19 µM
19 | CCN(c1cc(-c2cccc([C@@H]3C[C@H]3N)c2)cc(C(=O)NCc2c(C)cc(C)[nH]c2=O)c1C)C1CCOCC1 (racemic) | 12.4 µM
20 | CCN(c1cc(-c2ccc([C@@H]3C[C@H]3NC3CCOCC3)cc2)cc(C(=O)NCc2c(C)cc(C)[nH]c2=O)c1C)C1CCOCC1 (racemic) | 3.42 µM
21 | CCN(c1cc(-c2cccc([C@@H]3C[C@H]3NC3CCOCC3)c2)cc(C(=O)NCc2c(C)cc(C)[nH]c2=O)c1C)C1CCOCC1 (racemic) | 21 µM
22 | CCN(c1cc(-c2ccc([C@@H]3C[C@H]3NCC(=O)N3CCOCC3)cc2)cc(C(=O)NCc2c(C)cc(C)[nH]c2=O)c1C)C1CCOCC1 (racemic) | 6.01 µM
23 | CCN(c1cc(-c2ccc([C@@H]3C[C@H]3NCc3ccccc3OC)cc2)cc(C(=O)NCc2c(C)cc(C)[nH]c2=O)c1C)C1CCOCC1 (racemic) | 5.45 µM
24 | CCN(c1cc(-c2cccc([C@H]3C[C@@H]3N(C(=O)OC(C)(C)C)C3CCOCC3)c2)cc(C(=O)NCc2c(C)cc(C)[nH]c2=O)c1C)C1CCOCC1 (racemic) | 3.47 µM
25 | N[C@@H]1C[C@H]1c1ccccc1.N[C@H]1C[C@@H]1c1ccccc1 (racemic) [TRANYLCYPROMINE] | > 30 µM

The remaining lines, values ahead:

Row | GI50 | SMILES
26 | 5.02 µM | CCN(c1cc(-c2ccc([C@@H]3C[C@H]3N(C(=O)OC(C)(C)C)C3CCCCC3)cc2)cc(C(=O)NCc2c(C)cc(C)[nH]c2=O)c1C)C1CCOCC1 (racemic)
27 | 3.4 µM | CCN(c1cc(-c2ccc([C@@H]3C[C@H]3N(C(=O)OC(C)(C)C)C3CCOCC3)cc2)cc(C(=O)NCc2c(C)cc(C)[nH]c2=O)c1C)C1CCOCC1 (racemic)
28 | 3.38 µM | CCN(c1cc(-c2cccc([C@H]3C[C@@H]3N(CC3CCOCC3)C(=O)OC(C)(C)C)c2)cc(C(=O)NCc2c(C)cc(C)[nH]c2=O)c1C)C1CCOCC1 (racemic)
29 | 13.8 µM | CCN(c1cc(-c2ccc([C@@H]3C[C@H]3N(Cc3ccccc3)C(=O)OC(C)(C)C)cc2)cc(C(=O)NCc2c(C)cc(C)[nH]c2=O)c1C)C1CCOCC1 (racemic)
30 | 9.73 µM | CCN(c1cc(-c2ccc([C@@H]3C[C@H]3N(CC3CC3)C(=O)OC(C)(C)C)cc2)cc(C(=O)NCc2c(C)cc(C)[nH]c2=O)c1C)C1CCOCC1 (racemic)

Test system: CWR22R
Assay: Growth inhibition of human 22Rv1 cells incubated for 6 to 7 days by MTS assay
Type: functional
Details: time 6-7 day

Row | SMILES | GI50
31 | CCN(c1cc(-c2ccc([C@@H]3C[C@H]3N(C(=O)OC(C)(C)C)C3CCCCC3)cc2)cc(C(=O)NCc2c(C)cc(C)[nH]c2=O)c1C)C1CCOCC1 (racemic) | 24.3 µM
32 | CCN(c1cc(-c2ccc([C@@H]3C[C@H]3NCC(=O)N3CCNCC3)cc2)cc(C(=O)NCc2c(C)cc(C)[nH]c2=O)c1C)C1CCOCC1 (racemic) | 18.9 µM
33 | CCN(c1cc(-c2cccc([C@H]3C[C@@H]3NC(=O)OC(C)(C)C)c2)cc(C(=O)NCc2c(C)cc(C)[nH]c2=O)c1C)C1CCOCC1 (racemic) | 21.7 µM
34 | CCN(c1cc(-c2ccc([C@@H]3C[C@H]3N(Cc3ccccc3F)C(=O)OC(C)(C)C)cc2)cc(C(=O)NCc2c(C)cc(C)[nH]c2=O)c1C)C1CCOCC1 (racemic) | 7.13 µM
35 | CCN(c1cc(-c2ccc([C@@H]3C[C@H]3N(C(=O)OC(C)(C)C)C3CCOCC3)cc2)cc(C(=O)NCc2c(C)cc(C)[nH]c2=O)c1C)C1CCOCC1 (racemic) | 8.86 µM
36 | CCN(c1cc(-c2cccc([C@H]3C[C@@H]3N(CC3CCOCC3)C(=O)OC(C)(C)C)c2)cc(C(=O)NCc2c(C)cc(C)[nH]c2=O)c1C)C1CCOCC1 (racemic) | 6.05 µM
37 | CCN(c1cc(-c2cccc([C@@H]3C[C@H]3N)c2)cc(C(=O)NCc2c(C)cc(C)[nH]c2=O)c1C)C1CCOCC1 (racemic) | 26.2 µM
38 | CCN(c1cc(-c2ccc([C@@H]3C[C@H]3NC3CCOCC3)cc2)cc(C(=O)NCc2c(C)cc(C)[nH]c2=O)c1C)C1CCOCC1 (racemic) | 4.39 µM
39 | CCN(c1cc(-c2cccc([C@@H]3C[C@H]3NC3CCOCC3)c2)cc(C(=O)NCc2c(C)cc(C)[nH]c2=O)c1C)C1CCOCC1 (racemic) | 10.1 µM
40 | CCN(c1cc(-c2ccc([C@@H]3C[C@H]3NCC(=O)N3CCOCC3)cc2)cc(C(=O)NCc2c(C)cc(C)[nH]c2=O)c1C)C1CCOCC1 (racemic) | 19.7 µM
41 | CCN(c1cc(-c2ccc([C@@H]3C[C@H]3NCc3ccccc3OC)cc2)cc(C(=O)NCc2c(C)cc(C)[nH]c2=O)c1C)C1CCOCC1 (racemic) | 4.87 µM
42 | CCN(c1cc(-c2ccc([C@@H]3C[C@H]3N(Cc3ccccc3)C(=O)OC(C)(C)C)cc2)cc(C(=O)NCc2c(C)cc(C)[nH]c2=O)c1C)C1CCOCC1 (racemic) | > 30 µM
43 | CCN(c1cc(-c2cccc([C@H]3C[C@@H]3N(C(=O)OC(C)(C)C)C3CCOCC3)c2)cc(C(=O)NCc2c(C)cc(C)[nH]c2=O)c1C)C1CCOCC1 (racemic) | 6.92 µM
44 | CCN(c1cc(-c2ccc([C@@H]3C[C@H]3N(CC3CC3)C(=O)OC(C)(C)C)cc2)cc(C(=O)NCc2c(C)cc(C)[nH]c2=O)c1C)C1CCOCC1 (racemic) | 18.8 µM

Target: Lysine-specific histone demethylase 1A (Homo sapiens, UniProt O60341)
Assay: Inhibition of recombinant human LSD1 using Histone H3 as fluorometric substrate incubated for 30 mins by HRP based plate reader assay
Details: not given

Row | SMILES | pIC50
45 | CCN(c1cc(-c2cccc([C@H]3C[C@@H]3NC(=O)OC(C)(C)C)c2)cc(C(=O)NCc2c(C)cc(C)[nH]c2=O)c1C)C1CCOCC1 (racemic) | < 5.52
46 | CCN(c1cc(-c2ccc([C@@H]3C[C@H]3N(Cc3ccccc3F)C(=O)OC(C)(C)C)cc2)cc(C(=O)NCc2c(C)cc(C)[nH]c2=O)c1C)C1CCOCC1 (racemic) | < 5.52
47 | CCN(c1cc(-c2cccc([C@@H]3C[C@H]3N)c2)cc(C(=O)NCc2c(C)cc(C)[nH]c2=O)c1C)C1CCOCC1 (racemic) | < 5.52
48 | CCN(c1cc(-c2cccc([C@H]3C[C@@H]3N(C(=O)OC(C)(C)C)C3CCOCC3)c2)cc(C(=O)NCc2c(C)cc(C)[nH]c2=O)c1C)C1CCOCC1 (racemic) | < 5.52

Now from value to molecule:

Row | pIC50 | SMILES
49 | < 5.52 | CCN(c1cc(-c2ccc([C@@H]3C[C@H]3N(C(=O)OC(C)(C)C)C3CCCCC3)cc2)cc(C(=O)NCc2c(C)cc(C)[nH]c2=O)c1C)C1CCOCC1 (racemic)
50 | < 5.52 | CCN(c1cc(-c2ccc([C@@H]3C[C@H]3N(C(=O)OC(C)(C)C)C3CCOCC3)cc2)cc(C(=O)NCc2c(C)cc(C)[nH]c2=O)c1C)C1CCOCC1 (racemic)
51 | < 5.52 | CCN(c1cc(-c2cccc([C@H]3C[C@@H]3N(CC3CCOCC3)C(=O)OC(C)(C)C)c2)cc(C(=O)NCc2c(C)cc(C)[nH]c2=O)c1C)C1CCOCC1 (racemic)
52 | < 5.52 | CCN(c1cc(-c2ccc([C@@H]3C[C@H]3N(Cc3ccccc3)C(=O)OC(C)(C)C)cc2)cc(C(=O)NCc2c(C)cc(C)[nH]c2=O)c1C)C1CCOCC1 (racemic)
53 | < 5.52 | CCN(c1cc(-c2ccc([C@@H]3C[C@H]3N(CC3CC3)C(=O)OC(C)(C)C)cc2)cc(C(=O)NCc2c(C)cc(C)[nH]c2=O)c1C)C1CCOCC1 (racemic)
